Values joined by “and” are separate entries in the source; they are usually repeats but may differ in a detail not shown here. Identical values can stand only once.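 96-well plates; 48 h exposure; 5 concentrations. Endpoints by linear interpolation between flanking doses. Not reached: highest tested concentration assigned. At the GI50, growth is halved. The concentration for full growth arrest is given as TGI.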
Key:
Assay in all cases: NCI tumour cell line growth inhibition, 48 h
SK-MEL-28 melanoma = system: SK-MEL-28 melanoma
KM12 colon = system: KM12 colon
MDA-MB-231 breast = system: MDA-MB-231 breast
SF-295 CNS = system: SF-295 CNS
HL-60(TB) leukemia = system: HL-60(TB) leukemia
SK-MEL-5 melanoma = system: SK-MEL-5 melanoma
OVCAR-4 ovarian = system: OVCAR-4 ovarian
SN12C renal = system: SN12C renal
MDA-MB-435 = system: MDA-MB-435
ACHN renal = system: ACHN renal

Row | Compound | GI50 (SK-MEL-28 melanoma) | TGI (SK-MEL-28 melanoma) | GI50 (KM12 colon) | TGI (KM12 colon) | GI50 (MDA-MB-231 breast) | TGI (MDA-MB-231 breast) | GI50 (SF-295 CNS) | TGI (SF-295 CNS) | GI50 (HL-60(TB) leukemia) | TGI (HL-60(TB) leukemia) | GI50 (SK-MEL-5 melanoma) | TGI (SK-MEL-5 melanoma) | GI50 (OVCAR-4 ovarian) | TGI (OVCAR-4 ovarian) | GI50 (SN12C renal) | TGI (SN12C renal) | GI50 (MDA-MB-435) | TGI (MDA-MB-435) | GI50 (ACHN renal) | TGI (ACHN renal)
1 | Cc1nn(C)c(COc2ccc(N3CCN(S(=O)(=O)N(C)C)CC3)cc2)c1-c1cccc2c(CCCOc3cccc4ccccc34)c(C(=O)O)n(CCN3CCOCC3)c12 | 2.07 µM | 4.87 µM | 3.5 µM | 13 µM | 2.26 µM | 5.9 µM | 2.78 µM | 10.2 µM | 2.45 µM | 6.07 µM | 2.44 µM | 5.96 µM | 3.4 µM | 14.1 µM | 3.25 µM | 12.4 µM | 3.4 µM | 12 µM | 4.03 µM | 15.7 µM
2 | O=S(=O)(c1cccc2c(I)cccc12)N1CCCNCC1 | 21.6 µM | 44.2 µM | 16.3 µM | 33.9 µM | 19.5 µM | 36.7 µM | 16.1 µM | 34.1 µM | 14.2 µM | 43.4 µM | 8.71 µM | 25.2 µM | 18.6 µM | 38.4 µM | 21.2 µM | 38.4 µM | 17.7 µM | 35.6 µM | 18.1 µM | 33.6 µM
3 | CC1=C(C(=O)N(C)c2ccc(Cl)c(C(=O)OC(C)C)c2)SCCO1 |  | > 100 µM |  | > 100 µM |  | > 100 µM |  | > 100 µM |  | > 100 µM |  | > 100 µM |  | > 100 µM |  | > 100 µM |  | > 100 µM |  | > 100 µM
4 | C#CCNCCN1C(=O)c2ccc3c4c(ccc(c24)C1=O)C(=O)N(CCNCC#C)C3=O | 10.4 µM | 27.6 µM | 3.35 µM | 11.4 µM | 5.24 µM | 13.6 µM | 2.15 µM | 15 µM | 8.35 µM | 25.8 µM | 1.65 µM | 6.56 µM | 1.96 µM | 7.47 µM | 2.62 µM | 9.32 µM | 1.52 µM | 5.85 µM | 2.63 µM | 9.8 µM
5 | CC(C)CCNCC(O)Cn1c2ccccc2c2ccccc21 (stereo not drawn) | 4.42 µM | 16.1 µM | 3.91 µM | 14.4 µM | 3.51 µM | 14.4 µM | 19.4 µM | 39.4 µM | 14.3 µM | 31.6 µM | 2.27 µM | 6.25 µM | 12.9 µM | 27.2 µM | 11.2 µM | 25.1 µM | 3.82 µM | 14.8 µM | 10.5 µM | 23.4 µM
6 | O=[N+]([O-])c1cc(Cl)cnc1Br |  | 10.2 µM |  | 19 µM |  | 12.2 µM |  | 10.6 µM |  | 9.11 µM |  | 10.1 µM |  | 3.82 µM |  | 7.82 µM |  | 5.4 µM |  | 4.66 µM
7 | COc1ccc(C2=CC(c3ccc(OC)cc3Br)N3C=CSC3=N2)cc1 (stereo not drawn) | 8.83 µM | 22.3 µM | 2.28 µM | 5.06 µM | 8.32 µM | 36.2 µM | 11.5 µM | 38.7 µM | 3.2 µM | 19.3 µM | 4.32 µM | 16.6 µM | 5.04 µM | 27.3 µM | 10 µM | 25.5 µM | 2.58 µM | 7.95 µM | 2.39 µM | 5.88 µM
8 | O=[N+]([O-])c1ccc(N2CCC(CCCC3CCN(c4ccc([N+](=O)[O-])cc4[N+](=O)[O-])CC3)CC2)c([N+](=O)[O-])c1 |  | 28.9 µM |  | 30.7 µM |  | 36 µM |  | 32.3 µM |  | 35.9 µM |  | 30.7 µM |  | 33.4 µM |  | > 100 µM |  | 26.8 µM |  | 35.4 µM
9 | COc1ccc(Cl)c(Nc2nc3ccccc3nc2NS(=O)(=O)c2cccc(NC(=O)C(C)(C)N)c2)c1 | 7.93 µM and > 10 µM | 22.2 µM and > 10 µM | 12 µM and > 10 µM | 30.9 µM and > 10 µM | 14.5 µM and > 10 µM | 32.6 µM and > 10 µM | 4.7 µM and 2.56 µM | 18.8 µM and > 10 µM | 5.93 µM and 2.1 µM | 20.7 µM and > 10 µM | 12.1 µM and > 10 µM | 24.6 µM and > 10 µM | 14.8 µM and > 10 µM | 28.3 µM and > 10 µM | 9.79 µM and > 10 µM | 22.3 µM and > 10 µM | 11.5 µM and > 10 µM | 25.2 µM and > 10 µM | 10.5 µM and > 10 µM | 22.6 µM and > 10 µM
10 | N#CSCc1ccc(Cl)c(CSC#N)c1 | 3.58 µM | 22.4 µM | 0.545 µM | > 41.9 µM | 2.36 µM | > 64 µM | 3.15 µM | > 49.3 µM | 0.0468 µM | 2.48 µM | 0.33 µM | 12.2 µM | 0.659 µM | 19.4 µM | 0.482 µM | 40.7 µM | 0.133 µM | 3.81 µM | 0.0865 µM | 22.6 µM
11 | CC1=C(CCC(C)NCc2ccc(OCCCN3CCCCC3)cc2)C(C)(C)CCC1 (stereo not drawn) | 1.38 µM | 2.83 µM | 1.7 µM | 3.36 µM | 1.02 µM | 2.73 µM | 1.66 µM | 3.23 µM | 2.14 µM | 4.2 µM | 1.68 µM | 3.06 µM | 1.99 µM | 5.5 µM | 1.87 µM | 3.95 µM | 0.216 µM | 0.528 µM | 1.69 µM | 3.17 µM
12 | Nc1ccccc1C#C/C=C\C#Cc1cccc(O)c1 | 8.97 µM | 31.9 µM | 2.61 µM | 11.7 µM | 2.29 µM | 14.1 µM | 2.19 µM | 8.29 µM | 4.15 µM | 21.2 µM | 2.47 µM | 14.5 µM | 6.68 µM | > 84.8 µM | 2.66 µM | 19.6 µM | 1.5 µM | 4.12 µM | 2.64 µM | 18.8 µM
13 | CN(C)c1ccc(C(=NO)c2ccc(N(C)C)cc2)cc1 | 5.3 µM | > 100 µM | 1.28 µM | > 100 µM | 4.85 µM | > 100 µM |  |  | 1.62 µM | > 100 µM | 1.57 µM | 4.74 µM | 89 µM | > 100 µM | 4.94 µM | > 100 µM | 0.277 µM | 1.92 µM | 8.43 µM | > 100 µM
